Test results reported in US20250345512A1, “COMBINATION SODIUM-GLUCOSE COTRANSPORTER INHIBITOR (SGLTI) INSULIN THERAPY FOR GLYCEMIC CONTROL IN TYPE 1 DIABETES” (University of Virginia Patent Foundation, priority 2022, published 2025).

System: participants with T1D
Test: Randomized crossover clinical trial (NCT04201496): CGM glycemic outcomes with 5 mg daily empagliflozin adjunctive to AID (Control-IQ, CIQ) or PLGS (Basal-IQ, BIQ)
Assay type: in vivo, human
Settings: for % CGM time <50 mg/dL (<2.8 mmol/L) / % CGM time <60 mg/dL (<3.3 mmol/L) / % CGM time <70 mg/dL (<3.9 mmol/L) / % CGM time >180 mg/dL (>10.0 mmol/L) / % CGM time >250 mg/dL (>13.9 mmol/L) / % CGM time >300 mg/dL (>16.7 mmol/L) / CGM HBGI / CGM LBGI: median (IQR)
Experimental: FIG. 2 presents a study analysis relative to baseline, control IQ (CIQ) (e.g., AID), and basal IQ (BIQ) (e.g., PLGS) implementation, according to investigation that is demonstrable of one or more embodiments herein. Therein, an experimental arm (G1, G2) providing an initial daily dose of 5 mg empagliflozin (EMPA) is depicted against a control arm (G3, G4) without such dosing (NOEMPA). Relative characteristics of the analysis are provided below.
Study Design: A single-center, randomized, controlled, unblinded, crossover clinical trial (NCT04201496) compared four parallel groups, two groups in the experimental arm (EMPA) with 5 mg daily empagliflozin as adjunctive therapy to PLGS or AID, and two groups in the control arm (NOEMPA) with no drug and with a PLGS system (Basal-IQ, Tandem Diabetes Care) or AID system (Control-IQ, Tandem Diabetes Care). The groups within each arm differed from one another in the order of the randomly assigned crossover technological intervention, relative to PLGS being followed by AID or AID being followed by PLGS, respectively (FIG. 4). The study protocol was approved by the University of Virginia Institutional Review Board (IRB). An investigational device exemption (IDE), including an investigational new drug (IND) application for empagliflozin, was approved by the FDA. Safety aspects were overseen by an external data and safety monitoring board (DSMB). Participants: Major inclusion criteria were T1D treated with insulin for at least one year, use of continuous subcutaneous insulin infusion therapy for at least six months, age 18-65 yrs., no use of glucose lowering agents other than insulin, and Hb1Ac<9% (75 mmol/mol). Randomization: A (1:1:1:1) randomization assigned participants to either Group 1, AID-EMPA (4 weeks) followed by PLGS-EMPA (2 weeks), Group 2, PLGS-EMPA (2 weeks) followed by AID-EMPA (4 weeks), Group 3, AID-NOEMPA (4 weeks) followed by PLGS-NOEMPA (2 weeks), and Group 4, PLGS-NOEMPA (2 weeks) followed by AID-NOEMPA (4 weeks). Procedures: After confirmation of eligibility, participants underwent study equipment and medication training (experimental arm), or only study equipment training (control arm). Study equipment consisted of Dexcom G6® CGM (Dexcom Inc., San Diego, CA), Contour® Next blood glucose (Ascensia Diabetes Care, Basel, Switzerland) and Precision Xtra® blood ketone meters (Abbott, Alameda, CA) with their respective test strips; infusion sets, and the use of the t:slim X2™ insulin pump with Basal-IQ or Control-IQ technologies (Tandem Diabetes Care, San Diego, CA), according to randomization. […] Participants in the experimental arm were asked to record two days of baseline ketone values before initiating the use of the study drug. Thereafter, participants were directed to use the study CGM with EMPA for 1-2 weeks. A tolerance to the medication was assessed prior to the starting of the next study phase, including adherence to the protocol, ketone testing 2-4 times per day with monitored values not greater than 0.6 mmol/L on at least two successive occasions (the first testing upon waking in a fasted state), no adverse events relating to perineal infection or symptomatic postural hypotension, and no evidence of significant hypoglycemia <54 mg/dL, or any other listed adverse effects of the medication. Participants in the control arm were directed to use the study CGM for 1-2 weeks. Sample Size: The total sample size was projected to be 40 participants, assuming 1) 1:1:1:1 randomization; 2) 90% power and type 1 error a=0.01, further reinforcing the feasibility of hierarchical analyses. The projected recruitment sample was n=50, to accommodate up to 20% attrition rate without sacrificing statistical power. Analytical methods: For the primary analysis, TIR during the day in the 4-week AID period was compared between the two EMPA groups versus the two NOEMPA groups using a linear mixed-effects regression model while adjusting for pre-randomization HbAlc and age. […]

[1] = overall, CIQ-EMPA vs. BIQ-NOEMPA, BIQ-EMPA vs. CIQ-NOEMPA
[2] = overall, CIQ-EMPA vs. CIQ-NOEMPA, BIQ-EMPA vs. BIQ-NOEMPA
[3] = overall, CIQ-EMPA vs. CIQ-NOEMPA, BIQ-EMPA vs. BIQ-NOEMPA, listed as AID-EMPA
[4] = overnight, CIQ-EMPA vs. BIQ-EMPA
[5] = overnight, CIQ-EMPA vs. BIQ-EMPA, listed as AID-EMPA
[6] = overnight, CIQ-EMPA vs. BIQ-NOEMPA, BIQ-EMPA vs. CIQ-NOEMPA
[7] = overnight, CIQ-EMPA vs. CIQ-NOEMPA, BIQ-EMPA vs. BIQ-NOEMPA

Compound: OC[C@H]1O[C@@H](c2ccc(Cl)c(Cc3ccc(O[C@H]4CCOC4)cc3)c2)[C@H](O)[C@@H](O)[C@@H]1O [CIQ-EMPA, empagliflozin]
- Difference: CGM HBGI [1]: −5.4
- Difference: CGM LBGI [1]: −0.1
- Difference: % CGM time >180 mg/dL (>10.0 mmol/L) [2]: −22.3 percentage points
- Difference: CGM HBGI [2]: −2.7
- Difference: CGM LBGI [2]: 0
- Difference: CGM SD [2]: -12.3 mg/dL
- Difference: % CGM time 70-180 mg/dL (<3.9-10.0 mmol/L) [3]: +14.7 percentage points
- Difference: % CGM time >180 mg/dL (>10.0 mmol/L) [3]: −12.3 percentage points
- Difference: % CGM time >250 mg/dL (>13.9 mmol/L) [3]: −4.9 percentage points
- % CGM time <70-140 mg/dL (<3.9-7.8 mmol/L) (overall, n = 16, mean ± SD): 59.6 ± 13.7%
- % CGM time <70-180 mg/dL (<3.9-10.0 mmol/L) (overall, n = 16, mean ± SD): 83 ± 10.6%
- CGM CV (%) (overall, n = 16, mean ± SD): 29.4 ± 3.6%
- CGM SD (overall, n = 16, mean ± SD): 40.5 ± 9.4 mg/dL
- Mean CGM glucose (overall, n = 16, mean ± SD): 137 ± 18.6 mg/dL
- % CGM time <50 mg/dL (<2.8 mmol/L) (overall, n = 16): 0(0-0.2) %
- % CGM time <60 mg/dL (<3.3 mmol/L) (overall, n = 16): 0.3(0.1-0.5) %
- % CGM time <70 mg/dL (<3.9 mmol/L) (overall, n = 16): 1.1(0.5-1.5) %
- % CGM time >180 mg/dL (>10.0 mmol/L) (overall, n = 16): 11.5(7-19) %
- % CGM time >250 mg/dL (>13.9 mmol/L) (overall, n = 16): 1.1(0.2-2.9) %
- % CGM time >300 mg/dL (>16.7 mmol/L) (overall, n = 16): 0(0-0.5) %
- CGM HBGI (overall, n = 16): 2.7(2-4.4)
- CGM LBGI (overall, n = 16): 0.5(0.4-0.6)
- Difference (95% CI): % CGM time 70 mg/dL (<3.9 mmol/L) [4]: −1.5 percentage points
- Difference (95% CI): % CGM time <50 mg/dL (<2.8 mmol/L) [4]: 0.2 percentage points
- Difference (95% CI): % CGM time <60 mg/dL (<3.3 mmol/L) [4]: −0.4 percentage points
- Difference (95% CI): % CGM time >250 mg/dL (>13.9 mmol/L) [4]: −2.5 percentage points
- Difference (95% CI): % CGM time >300 mg/dL (>16.7 mmol/L) [4]: −2.5 percentage points
- Difference (95% CI): CGM CV (%) [4]: −5.1%
- Difference (95% CI): CGM HBGI [4]: −2.1
- Difference (95% CI): CGM LBGI [4]: −0.5
- Difference (95% CI): CGM SD [4]: -10.2 mg/dL
- Difference (95% CI): Mean CGM glucose [4]: -11.7 mg/dL
- Difference (95% CI): % CGM time 70-180 mg/dL (3.9-10.0 mmol/L) [5]: +10.2 percentage points
- Difference (95% CI): % CGM time >180 mg/dL (>10.0 mmol/L) [5]: −9.5 percentage points
- Difference (95% CI): % CGM time <60 mg/dL (<3.3 mmol/L) [6]: −0.3 percentage points
- Difference (95% CI): % CGM time >180 mg/dL (>10.0 mmol/L) [6]: −27.3 percentage points
- Difference (95% CI): % CGM time >250 mg/dL (>13.9 mmol/L) [6]: −16.4 percentage points
- Difference (95% CI): % CGM time >300 mg/dL (>16.7 mmol/L) [6]: −7.6 percentage points
- Difference (95% CI): CGM CV (%) [6]: −11.1%
- Difference (95% CI): CGM HBGI [6]: −7.3
- Difference (95% CI): CGM LBGI [6]: −0.3
- Difference (95% CI): CGM SD [6]: -27.1 mg/dL
- Difference (95% CI): Mean CGM glucose [6]: -36.2 mg/dL
- Difference (95% CI): % CGM time 70 mg/dL (<3.9 mmol/L) [7]: −1.1 percentage points
- Difference (95% CI): % CGM time <50 mg/dL (<2.8 mmol/L) [7]: −0.1 percentage points
- Difference (95% CI): % CGM time <60 mg/dL (<3.3 mmol/L) [7]: −0.6 percentage points
- Difference (95% CI): % CGM time >180 mg/dL (>10.0 mmol/L) [7]: −14.6 percentage points
- Difference (95% CI): % CGM time >250 mg/dL (>13.9 mmol/L) [7]: −5.5 percentage points
- Difference (95% CI): CGM HBGI [7]: −3.2
- Difference (95% CI): CGM LBGI [7]: 0.2
- Difference (95% CI): CGM SD [7]: -18.3 mg/dL
- Difference (95% CI): Mean CGM glucose [7]: -21.5 mg/dL
- % CGM time 70-140 mg/dL (3.9-7.8 mmol/L) (overnight, n = 16, mean ± SD): 64 ± 18%
- % CGM time 70-180 mg/dL (3.9-10.0 mmol/L) (overnight, n = 16, mean ± SD): 87 ± 13%
- CGM CV (%) (overnight, n = 16, mean ± SD): 25.4 ± 5.4%
- CGM SD (overnight, n = 16, mean ± SD): 34.2 ± 10.7 mg/dL
- Mean CGM glucose (overnight, n = 16, mean ± SD): 133 ± 20 mg/dL
- % CGM time <50 mg/dL (<2.8 mmol/L) (overnight, n = 16): 0(0-0.3) %
- % CGM time <60 mg/dL (<3.3 mmol/L) (overnight, n = 16): 0.3(0-0.5) %
- % CGM time <70 mg/dL (<3.9 mmol/L) (overnight, n = 16): 0.7(0-1.3) %
- % CGM time >180 mg/dL (>10.0 mmol/L) (overnight, n = 16): 6.3(3.3-11.1) %
- % CGM time >250 mg/dL (>13.9 mmol/L) (overnight, n = 16): 0(0-2) %
- % CGM time >300 mg/dL (>16.7 mmol/L) (overnight, n = 16): 0(0-0.4) %
- CGM HBGI (overnight, n = 16): 2.1(1.3-2.7)
- CGM LBGI (overnight, n = 16): 0.4(0.2-0.5)
- night-time in range, h out of 8 h (overnight, out of 8 h of the night-time, listed as AID-EMPA): 7 h
